Results taken from patent publication US20220370001A1, “INTESTINAL DIAGNOSTIC SCREENING DEVICE AND METHOD FOR TARGETED GASTROINTESTINAL THERAPY” (AJM MED-I-CAPS LTD, priority 2019, published 2022).

How the values were obtained:
[1] = Fluorescence excitation and emission spectra; format: physicochemical
Source text: FIG. 2A is a graph of Near-Infra-Red fluorescence absorbance and emission spectra of CF750 at varying wavelengths, according to an example embodiment of the present disclosure. CF750 has a NIRF peak excitation (solid line) and a peak emission (dotted line) at 760 nm and 780 nm, respectively. Likewise, FIG. 2B is a graph of near-infra-red fluorescence absorbance and emission spectra of IRDye® CW800, according to an example embodiment of the present disclosure. IRDye® CW800 has a peak NIRF excitation and a peak NIRF emission at 774 nm and 789 nm, respectively. FIG. 2C is a graph of absorbance and emission spectra of anticancer drug doxorubicin at varying wavelengths, according to an example embodiment of the present disclosure. Doxorubicin has a peak excitation and a peak emission at 470 nm and 550 nm, respectively.
DSA (3 mg) is mixed with 800 μL of 1:1 dichloromethane and methanol in a glass vial. IRDye® 800CW NHS ester (0.5 mg) was dissolved in methanol (200 μL) then immediately combined with the lipid solution. The mixture is covered to protect it from light and left on a vortex mixer for 2.5 h. The solvent is then reduced in vacuum, dissolved in minimal amount of chloroform and applied to a silica micro-column (˜3 mL) also in chloroform. The unbound fraction is reapplied several times, before elution and washing with the same solvent. Excess DSA and unreacted dye material is retained on the column and the latter is estimated at <10% of the coloured fraction. The unbound product is dried to a film and stored as a solution in 1 mL chloroform.

[2] = reported value for the free dye; cited from earlier work

| SMILES | peak emission (Emmax) [1] [nm] | peak excitation (Exmax) [1] [nm] | Emmax, reported value [2] [nm] | Exmax, reported value [2] [nm] |
| --- | --- | --- | --- | --- |
| COc1cccc2c1C(=O)c1c(O)c3c(c(O)c1C2=O)C[C@@](O)(C(=O)CO)C[C@@H]3O[C@H]1C[C@H](N)[C@H](O)[C@H](C)O1 [Doxorubicin, doxorubicin] | 550 | 470 | – | – |
| CC1(C)C(/C=C/C2=C(Oc3ccc(S(=O)(=O)O)cc3)C(=C/C=C3/N(CCCCS(=O)(=O)O)c4ccc(S(=O)(=O)[O-])cc4C3(C)C)/CCC2)=[N+](CCCCCC(=O)O)c2ccc(S(=O)(=O)O)cc21 [IRDye® CW800] | 789 | 774 | 789 | 774 |
